Test results as given in PubChem BioAssay (NCI).
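Assay format: 96-well plates, 48-hour exposure. At the TGI there is no net growth.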

What was measured:
Experiment in all cases: DTP human tumour cell line panel, 48 h
RPMI-8226 leukemia = system: RPMI-8226 leukemia
RXF 393 renal = system: RXF 393 renal
A498 renal = system: A498 renal
SW-620 colon = system: SW-620 colon
SN12C renal = system: SN12C renal
SK-MEL-28 melanoma = system: SK-MEL-28 melanoma
NCI-H460 lung = system: NCI-H460 lung
IGROV1 ovarian = system: IGROV1 ovarian
CCRF-CEM leukemia = system: CCRF-CEM leukemia
HL-60(TB) leukemia = system: HL-60(TB) leukemia
SK-MEL-5 melanoma = system: SK-MEL-5 melanoma
SF-268 CNS = system: SF-268 CNS
UO-31 renal = system: UO-31 renal
SK-OV-3 ovarian = system: SK-OV-3 ovarian
PC-3 prostate = system: PC-3 prostate
HOP-92 NSCLC = system: HOP-92 NSCLC
UACC-62 melanoma = system: UACC-62 melanoma
LOX IMVI melanoma = system: LOX IMVI melanoma
U251 CNS = system: U251 CNS
T-47D breast = system: T-47D breast

SMILES | TGI (RPMI-8226 leukemia) [µM] | TGI (RXF 393 renal) [µM] | TGI (A498 renal) [µM] | TGI (SW-620 colon) [µM] | TGI (SN12C renal) [µM] | TGI (SK-MEL-28 melanoma) [µM] | TGI (NCI-H460 lung) [µM] | TGI (IGROV1 ovarian) [µM] | TGI (CCRF-CEM leukemia) [µM] | TGI (HL-60(TB) leukemia) [µM] | TGI (SK-MEL-5 melanoma) [µM] | TGI (SF-268 CNS) [µM] | TGI (UO-31 renal) [µM] | TGI (SK-OV-3 ovarian) [µM] | TGI (PC-3 prostate) [µM] | TGI (HOP-92 NSCLC) [µM] | TGI (UACC-62 melanoma) [µM] | TGI (LOX IMVI melanoma) [µM] | TGI (U251 CNS) [µM] | TGI (T-47D breast) [µM]
Cc1nc2ccc(N=Nc3c(O)ccc4ccccc34)cc2[nH]1 | > 82.8 | > 57.9 | > 92.7 | > 70 | > 74.9 | > 100 | > 87.7 | > 67 | > 58.3 | 46.8 | > 65.1 | > 100 | > 84.8 | > 100 | 48.1 | 42.8 | > 63.4 | 32.4 | > 67.9 | 41
COc1ccc(-c2cn3c(nc4ccccc43)c(C)n2)cc1 | > 100 | > 88.9 | > 100 | > 100 | > 100 | > 100 | > 100 | > 100 | > 100 | > 100 | > 100 | > 100 | > 64.6 | 39.2 | > 100 | > 100 | > 91.5 | > 100 | > 100 | > 67.3
CCOC(=O)c1c(N2CCOCC2)[nH]c(=O)c(C(c2c(O)c(C(=O)OCC)c(N3CCOCC3)[nH]c2=O)C(C)C)c1O | > 100 | > 100 | > 100 | > 100 | > 100 | > 100 | > 100 | – | > 100 | > 100 | > 100 | > 100 | > 100 | > 100 | > 100 | > 100 | > 100 | > 100 | > 100 | > 100
CC(C)(C)C1CCC2c3c([nH]c4ccccc34)C3C(=O)N(c4cccc(Cl)c4)C(=O)C3C2C1 (stereo not given) | > 72.2 | 22.6 | 53.7 | 23.2 | 15.6 | 32 | 17.7 | 45.7 | > 91.8 | 13 | 26.3 | 32.4 | 15.1 | 63.2 | 36.9 | 18.9 | 33.4 | 20.8 | 38.4 | 48.7
OCC1C(O)C(O)[C@@H]2SCCN12 (stereo not given in full) | > 100 | > 100 | > 100 | > 100 | – | > 100 | > 100 | > 100 | > 100 | > 100 | > 100 | > 100 | > 100 | > 100 | > 100 | > 100 | > 100 | > 100 | > 100 | > 100
CCOC(=O)CCC(NC(=O)N1CCN(c2c(C)nc(C)[nH]c2=O)CC1)C(=O)OCC (stereo not given) | > 100 | > 100 | > 100 | > 100 | > 100 | > 100 | > 100 | > 100 | > 100 | > 100 | – | > 100 | > 100 | > 100 | > 100 | > 100 | > 100 | > 100 | > 100 | > 100
NC(=O)ON=C1CCN(Cc2ccccc2)CC1 | > 100 | > 100 | > 100 | > 100 | > 100 | > 100 | > 100 | > 100 | > 100 | > 100 | > 100 | > 100 | > 100 | > 100 | > 100 | > 100 | > 100 | > 100 | > 100 | > 100
C#CCn1c(=O)c(C)cn(/C(=C/C(=O)OCC)C(=O)OCC)c1=O | > 27.7 | 2.01 | 31.5 | 4.16 | 26.2 | 19.7 | 7.83 | 13 | 13.5 | > 100 | 32.9 | 25.6 | 23.4 | > 63.1 | 25.7 | 8.5 | 24.8 | 29.8 | 25.2 | 20.3
CNC(=S)NNC1=NCCCN1 | > 100 | > 100 | > 100 | > 100 | – | > 100 | > 100 | > 100 | > 100 | > 100 | > 100 | > 100 | > 100 | > 100 | > 100 | > 100 | > 100 | > 100 | > 100 | > 100
COC(=O)C1=C(O)C(C(=O)OC)[C@]2(O)[C@H](C(=O)OC)[C@H]1C[C@@H](c1ccccc1OC)[C@H]2C(=O)OC (stereo not given in full) | 8.82 | 20.2 | 17.4 | 19.6 | 17.4 | 27.1 | > 41.8 | 11.3 | 21.1 | 10.5 | 13.2 | 16.5 | 21.6 | > 50.9 | 20.7 | 15.7 | 18.3 | 9.35 | 19.3 | > 76.1
CCOC(=O)c1ccc(-c2cccs2)n1C | > 100 | > 100 | > 100 | > 100 | > 100 | > 100 | > 100 | > 100 | > 100 | > 100 | > 100 | > 100 | > 100 | > 100 | > 100 | > 94.8 | > 100 | > 100 | > 100 | > 92.4
COc1cccc2c3cccc(OC)c3c3[nH]cnc3c12 | 5.67 | 3.42 | 33.4 | 3.19 | 22.3 | 9.53 | 3.26 | 3.46 | 3.4 | 2.38 | – | 9.26 | 3.02 | 34.1 | 4.6 | 24 | 30.3 | 3.52 | 3.03 | 40.2
CCC(C#N)N(Cc1ccc(CN(C(=O)c2ccccc2)C(C#N)CC)cc1)C(=O)c1ccccc1 (stereo not given) | 42.7 | > 100 | 65 | 93 | 69.3 | – | – | 61.8 | 51.1 | 84.1 | 25.8 | > 100 | 93.4 | > 100 | > 100 | 35.3 | 60.1 | 31.4 | 56.1 | 67
CCN(CC)CC(O)CNc1ccc(NCC(O)CCl)c2c1C(=O)c1ccccc1C2=O (stereo not given) | 26.6 | 26.6 | 21 | 14.4 | 19.7 | 25.4 | 12.5 | 25.5 | 11.4 | 11.3 | 22.1 | 19.9 | 17.9 | 39.1 | 19.8 | 18.2 | 29.2 | 2.17 | 28 | 38.7
O=C(O)c1cnccc1-c1cc(=O)[nH]n1-c1ccccc1 | > 100 | > 100 | > 100 | > 100 | > 100 | > 78.2 | > 100 | > 100 | > 100 | > 87 | > 100 | > 100 | > 100 | > 100 | > 100 | > 100 | > 100 | > 100 | > 100 | > 100
CCOC(=O)C(Cc1ccc(OC(=O)c2ccc(OC)cc2OC)cc1)NC(=O)C(F)(F)F (stereo not given) | 50.7 | 36.2 | 31.6 | > 100 | > 100 | – | > 100 | 41.8 | 83.8 | 51.1 | > 100 | > 100 | 34.5 | > 100 | 48.1 | 55.1 | 30.5 | 36 | > 100 | 61.6
Nc1ccc(-c2nc3cc(F)ccc3s2)cc1Br | > 100 | > 100 | > 100 | > 100 | > 100 | > 100 | > 46 | > 37.2 | > 100 | > 100 | > 100 | > 100 | > 100 | > 100 | > 100 | > 100 | > 100 | > 100 | 57.8 | > 100
C/C(=C/CNc1ncnc2c1ncn2CCC(=O)O)CO | > 100 | > 100 | > 100 | > 100 | > 100 | > 100 | > 100 | > 100 | > 100 | > 100 | > 100 | > 100 | > 100 | > 100 | > 100 | > 100 | > 100 | > 100 | – | > 100
C/C(Sc1ccccc1)=C1/CCCN(Cc2ccccc2)C1 | 43.3 | 36.3 | > 100 | > 100 | – | 83 | 96.1 | > 100 | 46.4 | 32.6 | 28.6 | > 100 | 40.9 | > 100 | 59.9 | 51.9 | 47.6 | 31.8 | 57.8 | 33.5
